Test results taken from patent US20170216360A1, “METHODS AND COMPOSITIONS FOR IMPROVING HOMING OF CELLS INCLUDING MESENCHYMAL STEM CELLS” (SANOFI, priority 2014, published 2017).
Counter-ions that a name gives are not always drawn.

Tests used:
[1] = test system: TNF-α; test: TNF-α ELISA of ear homogenates after infusion of pretreated MSCs; format: in vivo, mouse
Experimental: (§1) To determine the impact of small molecule pretreatment on MSC therapeutic potential, ear swelling was measured. As a baseline, we measured ear thickness of all mice to be used using a caliper (Mitutoyo Inc.) and found no difference. Each measurement was taken 3 times with the average value recorded, and care taken to ensure minimal compression. Inflammation was then induced by injection of 30 μg LPS in 30 μL 0.9% saline solution into the pinna of the left ear. 24 hours later, n=3 mice of each condition were infused with no MSCs, 10e6/20 g body weight MSCs pretreated for 24 hours with 0.1% DMSO, or 10e6/20 g body weight MSCs pretreated for 24 hours with 3.0 μM small molecule compound 1929. Upon 24 hours after cell infusion, ear thickness was measured using a caliper as before. To evaluate TNF-α secretion, inflammation and MSC treatment was performed as above with n=4-6 mice for each condition. Mice were sacrificed 24 hours after cell administration and both ears were harvested. Ears were then ground in ice-cold extraction buffer (RIPA with 0.5% Tween-20) using a homogenizer. Homogenates were transferred to 1.5 mL tubes, centrifuged at 13,000×g for 10 minutes at 4° C., and the supernatant was stored at −80° C. until analysis. The level of mouse TNF-α level in the samples was quantified using an anti-mouse TNF-α ELISA kit (Biolegend, San Diego, Calif.).

[2] = test system: MSC firm adhesion to ICAM-1-coated surface; test: ICAM-1 firm adhesion assay under shear flow, with antibody blocking; format: cell-based, human
Experimental: Cell adhesion experiments were performed using Bioflux1000 (FluxionBio), allowing accurate control over shear flow. A special 48-well plate was used, in which a microfluidic channel (350 μm×70 μm) connects each pair of adjacent wells (termed inlet and outlet wells). The plate was placed under vacuum and the channels were coated from the inlet with recombinant human E-selectin (5 μg/mL) or ICAM-1 (5 μg/mL) and incubated at 37° C. for 1 h. Prior to introducing the cells into the channel, a wash with PBS−/− from the outlet well was performed for 5 min. Compound-pretreated MSCs were introduced into the channel, followed by attachment period of 2 minutes (no flow applied during the attachment period). Attached cells were then subjected to increasing shear flow, ranging from 0.25 dynes/cm^2 for up to 10 dynes/cm^2. Images were acquired using the Montage software and cell adhesion to the coated channels following subjection to shear flow was examined. See also disclosure elsewhere herein.
Pre-confluent MSCs were incubated for 24 hours with the indicated small molecules (3 μM). MSCs were than detached, washed and incubated for 30 minutes with an antibody reagent. The following antibodies are used: anti-human CD11a (clone: HI111), anti-human CD90 (clone: MAB2067), mouse anti-human CD11a (clone: TS1/22), and mouse IgG1 isotype control. Cells were then introduced into the channel and given 2 minutes to adhere before being subjected to increasing shear flow for a firm adhesion assay on a microfluidic channel coated with E-selectin or ICAM-1.

[3] = test system: CD11a mRNA; test: CD11a mRNA analysis by qPCR in MSCs; format: cell-based, human; conditions: 3 μM
Experimental: The mRNA levels of CD11a and CD18 in response to Ro-31-8425 pretreatment of MSCs were analyzed by qPCR. Specifically, MSCs were treated with Ro-31-8425 (3 μM) or vehicle control (0.1% DMSO) for 2 h, 4 h, 8 h, 14 h or 24 h. Cells were then trypsinized, washed with ice-cold PBS and pelleted (500 g for 5 min at 4° C.) at during the treatment and immediately stored at −80° C. RNA extraction was then performed. Briefly, the frozen cell pellet was crushed with a tissue pestle (Fisher Scientific) in the presence of 1 mL TRI RNA isolation reagent (Sigma Aldrich). Upon complete pellet dissociation, 0.2 mL chloroform was added and suspension was vortexed for 15 s, followed by incubation at ambient temperature for 10 min. The mixture was centrifuged at 15,000 g for 15 min at […], the resulting supernatant aqueous phase was removed, thoroughly mixed with 0.5 mL isopropanol (Sigma Aldrich) and further centrifuged (at 15,000 g for 10 min) to obtain the total RNA precipitates. The RNA pellets were washed twice in 75% ethanol, and air dried for 10 min at room temperature before being reconstituted with 20 uL ultrapure H2O. The quality and quantity of the total RNAs were measured and verified using Nanodrop ND-2000 Spectrophotometer (NanoDrop Products). Subsequently, equal amount of total RNA (2 μg) was reverse transcribed into cDNA using a QuantiTect reverse transcription kit (Qiagen). […]

[4] = test system: LPS-induced inflamed mouse ear; test: Ear thickness in LPS-induced ear inflammation after infusion of pretreated MSCs; format: in vivo
Experimental: as §1

[5] = test system: MSCs; test: Cell viability assay, XTT; format: cell-based, human
Experimental: Pre-confluent MSCs were incubated with Ro-31-8425 at the indicated concentrations for 24 h or 72 h and cell viability was assessed via an XTT assay according to manufacturer's instructions (ATCC).
MSCs were pretreated with Ro-31-8425 for 24 h or 72 h, followed by quantification of MSC viability via XTT. (Y axis presents the percentage of viable cells compared to untreated control (cells incubated with 10% FBS-supplemented MEMa media), error bars represent standard deviation, n=3).

Cn1cc(C2=C(c3c4n(c5ccccc35)CCC(CN)C4)C(=O)NC2=O)c2ccccc21 (stereo not drawn) [Compound 1929, 3-(8-aminomethyl-6,7,8,9-tetrahydro-pyrido[1,2-a]indol-10-yl)-4-(1-methyl-1H-indol-3-yl)-pyrrole-2,5-dione hydrochloride]
Reduction of increased TNF-α levels in the inflamed ear ([1]; 24 h after pretreated MSCs): ~50%
TNF-alpha levels in the inflamed ear, fold reduction ([1]; 24 hours after pretreated MSCs): 2.6±0.5 fold
CD11a+ part of the induced ICAM-1 adhering population ([2]; 3 μM for 24 h): approximately 7%
Increase in MSC firm adhesion to ICAM-1-coated substrate compared to vehicle-treated MSCs ([2]; 3 μM for 24 h): > 3 fold
New MSC sub-population with induced ICAM-1 firm adhesion, share of entire population ([2]; 3 μM for 24 h): 68%
Part expressing other ICAM-1-binding domains ([2]; 3 μM for 24 h): 61%
Adhered cells on ICAM-1-coated surface before CD11a blocking ([2]; pretreated MSC): 90%
Adhered cells on ICAM-1-coated surface following CD11a blocking ([2]; pretreated MSC, CD11a blocking Ab): 50%
CD11a mRNA levels in MSCs [3]: significantly increased
Time of peak CD11a mRNA levels post incubation [3]: 14 h
Effect on ear swelling relative to control MSCs ([4]; 24 hours post administration): over 3 ×
Reduction in ear thickness ([4]; 24 hours post administration of pretreated MSCs, vs no MSC): 20.0±5.3 μm
Effect in reducing ear swelling relative to vehicle control MSCs ([4]; 24 h post-administration): greater than 3 fold
MSC viability ([5]; 0.25 to 4 μM, 24 h pretreatment): did not significantly compromise cell viability
Concentration levels at which toxicity to MSCs was seen ([5]; 72 h pretreatment): greater than 4 μM
